Among the data in ChEMBL document CHEMBL3352288, “Synthesis and biological evaluation of 9α- and 9β-hydroxyamino-parthenolides as novel anticancer agents” (Bioorg Med Chem Lett, 2014) are IC50 values, retold here.

In one assay the test system is Hs 683. The assay can be described thus: Anticancer activity against human Hs 683 cells assessed as growth inhibition after 72 hrs by MTT colorimetric assay. The format is functional, cell-based. The conditions noted are these: Hs 683, 72 h. Background: Formazan colour is commonly taken as a measure of viable cells.
Broadly, the IC50 is the concentration needed to halve the response being measured. For the molecule `C/C1=C\CC[C@@]2(C)O[C@@H]2[C@H]2OC(=O)[C@@H](CN3CCN(c4ccccc4)CC3)[C@@H]2C[C@H]1O`, the IC50 stood at 22 µM.

For the molecule `C/C1=C\CC[C@@]2(C)O[C@@H]2[C@H]2OC(=O)[C@@H](CN3CCCC3)[C@@H]2C[C@H]1O`, the IC50 came to 15 µM.

Take `C[C@]12O[C@@H]1CC[C@@]1(C)O[C@@H]1[C@H]1OC(=O)[C@@H](CN3CCN(c4ccccc4F)CC3)[C@@H]1C[C@H]2O`: the IC50 is 18 µM.

Regarding `COc1ccc(N2CCN(C[C@@H]3C(=O)O[C@H]4[C@H]3C[C@@H](O)/C(C)=C/CC[C@@]3(C)O[C@H]43)CC2)cc1`, the IC50 stood at 22 µM.

Turning to `C[C@]12O[C@@H]1CC[C@@]1(C)O[C@@H]1[C@H]1OC(=O)[C@@H](CN3CCOCC3)[C@@H]1C[C@H]2O`, the IC50 was determined as 24 µM.

Turning to `C[C@]12O[C@@H]1CC[C@@]1(C)O[C@@H]1[C@H]1OC(=O)[C@@H](CN3CCCCC3)[C@@H]1C[C@H]2O`, the IC50 was 67 µM.

Consider `C/C1=C\CC[C@@]2(C)O[C@@H]2[C@H]2OC(=O)[C@@H](CN3CCOCC3)[C@@H]2C[C@H]1O`, for which the IC50 stood at 22 µM.

In the case of `C/C1=C\CC[C@@]2(C)O[C@@H]2[C@H]2OC(=O)[C@@H](CN3CCCCC3)[C@@H]2C[C@@H]1O`, the IC50 came out at 7 µM.

The next assay deals with SK-MEL-28. Description: Anticancer activity against human SK-MEL-28 cells assessed as growth inhibition after 72 hrs by MTT assay. The format is functional, cell-based. The settings on record: SK-MEL-28, 72 h.
Take `C[C@]12O[C@@H]1CC[C@@]1(C)O[C@@H]1[C@H]1OC(=O)[C@@H](CN3CCN(c4ccc(Cl)cc4)CC3)[C@@H]1C[C@H]2O`: the IC50 stood at 31 µM.

Turning to `C/C1=C\CC[C@@]2(C)O[C@@H]2[C@H]2OC(=O)[C@@H](CN3CCN(c4ccccc4)CC3)[C@@H]2C[C@H]1O`, the IC50 was determined as 19 µM.

`C/C1=C\CC[C@@]2(C)O[C@@H]2[C@H]2OC(=O)[C@@H](CN3CCCC3)[C@@H]2C[C@H]1O`: the IC50 was determined as 19 µM.

Turning to `C[C@]12O[C@@H]1CC[C@@]1(C)O[C@@H]1[C@H]1OC(=O)[C@@H](CN3CCN(c4ccccc4F)CC3)[C@@H]1C[C@H]2O`, the IC50 worked out at 17 µM.

Turning to `COc1ccc(N2CCN(C[C@@H]3C(=O)O[C@H]4[C@H]3C[C@@H](O)/C(C)=C/CC[C@@]3(C)O[C@H]43)CC2)cc1`, the half-inhibitory concentration (IC50) stood at 25 µM.

As to `C[C@]12O[C@@H]1CC[C@@]1(C)O[C@@H]1[C@H]1OC(=O)[C@@H](CN3CCOCC3)[C@@H]1C[C@H]2O`, the IC50 came to 22 µM.

As for `C[C@]12O[C@@H]1CC[C@@]1(C)O[C@@H]1[C@H]1OC(=O)[C@@H](CN3CCCCC3)[C@@H]1C[C@H]2O`, the IC50 is 84 µM.

As to `C/C1=C\CC[C@@]2(C)O[C@@H]2[C@H]2OC(=O)[C@@H](CN3CCOCC3)[C@@H]2C[C@H]1O`, the IC50 was determined as 22 µM.

As to `C/C1=C\CC[C@@]2(C)O[C@@H]2[C@H]2OC(=O)[C@@H](CN3CCCCC3)[C@@H]2C[C@@H]1O`, the IC50 came to 10 µM.

For a further assay, the system named is A549. The assay can be described thus: Anticancer activity against human A549 cells assessed as growth inhibition after 72 hrs by MTT colorimetric assay. In kind it is functional, cell-based. The conditions noted are these: A549, 72 h.
Turning to `C[C@]12O[C@@H]1CC[C@@]1(C)O[C@@H]1[C@H]1OC(=O)[C@@H](CN3CCN(c4ccc(Cl)cc4)CC3)[C@@H]1C[C@H]2O`, the IC50 amounted to 28 µM.

For the molecule `C/C1=C\CC[C@@]2(C)O[C@@H]2[C@H]2OC(=O)[C@@H](CN3CCN(c4ccccc4)CC3)[C@@H]2C[C@H]1O`, the half-inhibitory concentration (IC50) was 17 µM.

For `C/C1=C\CC[C@@]2(C)O[C@@H]2[C@H]2OC(=O)[C@@H](CN3CCCC3)[C@@H]2C[C@H]1O`, the IC50 is 10 µM.

As for `C[C@]12O[C@@H]1CC[C@@]1(C)O[C@@H]1[C@H]1OC(=O)[C@@H](CN3CCN(c4ccccc4F)CC3)[C@@H]1C[C@H]2O`, the IC50 amounted to 22 µM.

For the molecule `COc1ccc(N2CCN(C[C@@H]3C(=O)O[C@H]4[C@H]3C[C@@H](O)/C(C)=C/CC[C@@]3(C)O[C@H]43)CC2)cc1`, the IC50 was 26 µM.

On to `C[C@]12O[C@@H]1CC[C@@]1(C)O[C@@H]1[C@H]1OC(=O)[C@@H](CN3CCOCC3)[C@@H]1C[C@H]2O`, for which the IC50 was found to be 23 µM.

On to `C[C@]12O[C@@H]1CC[C@@]1(C)O[C@@H]1[C@H]1OC(=O)[C@@H](CN3CCCCC3)[C@@H]1C[C@H]2O`, for which the IC50 was found to be 90 µM.

As to `C/C1=C\CC[C@@]2(C)O[C@@H]2[C@H]2OC(=O)[C@@H](CN3CCOCC3)[C@@H]2C[C@H]1O`, the IC50 was determined as 25 µM.

In the case of `C/C1=C\CC[C@@]2(C)O[C@@H]2[C@H]2OC(=O)[C@@H](CN3CCCCC3)[C@@H]2C[C@@H]1O`, the half-inhibitory concentration (IC50) was 6 µM.

Tested on in another assay: not listed separately
Description: Anticancer activity against human Glioma cells assessed as growth inhibition after 72 hrs by MTT assay. In kind it is functional, cell-based.
Details: not given
Consider `C/C1=C\CC[C@@]2(C)O[C@@H]2[C@H]2OC(=O)[C@@H](CN3CCN(c4ccccc4)CC3)[C@@H]2C[C@H]1O`, for which the IC50 stood at 5 µM.

As to `C/C1=C\CC[C@@]2(C)O[C@@H]2[C@H]2OC(=O)[C@@H](CN3CCCC3)[C@@H]2C[C@H]1O`, the IC50 turned out to be 5 µM.

As for `C[C@]12O[C@@H]1CC[C@@]1(C)O[C@@H]1[C@H]1OC(=O)[C@@H](CN3CCN(c4ccccc4F)CC3)[C@@H]1C[C@H]2O`, the IC50 turned out to be 8 µM.

For the molecule `COc1ccc(N2CCN(C[C@@H]3C(=O)O[C@H]4[C@H]3C[C@@H](O)/C(C)=C/CC[C@@]3(C)O[C@H]43)CC2)cc1`, the IC50 turned out to be 18 µM.

Turning to `C[C@]12O[C@@H]1CC[C@@]1(C)O[C@@H]1[C@H]1OC(=O)[C@@H](CN3CCOCC3)[C@@H]1C[C@H]2O`, the IC50 was found to be 12 µM.

Consider `C[C@]12O[C@@H]1CC[C@@]1(C)O[C@@H]1[C@H]1OC(=O)[C@@H](CN3CCCCC3)[C@@H]1C[C@H]2O`, for which the IC50 came to 59 µM.

For the molecule `C/C1=C\CC[C@@]2(C)O[C@@H]2[C@H]2OC(=O)[C@@H](CN3CCOCC3)[C@@H]2C[C@H]1O`, the IC50 turned out to be 5 µM.

Tested on in the next assay: not listed separately
The assay can be described thus: Anticancer activity against mouse B16F10 cells assessed as growth inhibition after 72 hrs by MTT colorimetric assay. The format is functional, cell-based. The conditions noted are these: B16-F10, 72 h.
Take `C[C@]12O[C@@H]1CC[C@@]1(C)O[C@@H]1[C@H]1OC(=O)[C@@H](CN3CCN(c4ccc(Cl)cc4)CC3)[C@@H]1C[C@H]2O`: the IC50 stood at 19 µM.

Regarding `C/C1=C\CC[C@@]2(C)O[C@@H]2[C@H]2OC(=O)[C@@H](CN3CCN(c4ccccc4)CC3)[C@@H]2C[C@H]1O`, the IC50 came out at 6 µM.

Regarding `C/C1=C\CC[C@@]2(C)O[C@@H]2[C@H]2OC(=O)[C@@H](CN3CCCC3)[C@@H]2C[C@H]1O`, the IC50 was 4 µM.

In the case of `C[C@]12O[C@@H]1CC[C@@]1(C)O[C@@H]1[C@H]1OC(=O)[C@@H](CN3CCN(c4ccccc4F)CC3)[C@@H]1C[C@H]2O`, the concentration for half-maximal inhibition (IC50) came to 5 µM.

Turning to `COc1ccc(N2CCN(C[C@@H]3C(=O)O[C@H]4[C@H]3C[C@@H](O)/C(C)=C/CC[C@@]3(C)O[C@H]43)CC2)cc1`, the IC50 amounted to 14 µM.

In the case of `C[C@]12O[C@@H]1CC[C@@]1(C)O[C@@H]1[C@H]1OC(=O)[C@@H](CN3CCOCC3)[C@@H]1C[C@H]2O`, the 50% inhibitory concentration (IC50) turned out to be 9 µM.

For `C[C@]12O[C@@H]1CC[C@@]1(C)O[C@@H]1[C@H]1OC(=O)[C@@H](CN3CCCCC3)[C@@H]1C[C@H]2O`, the IC50 is 46 µM.

As for `C/C1=C\CC[C@@]2(C)O[C@@H]2[C@H]2OC(=O)[C@@H](CN3CCOCC3)[C@@H]2C[C@H]1O`, the IC50 amounted to 5 µM.

Regarding `C/C1=C\CC[C@@]2(C)O[C@@H]2[C@H]2OC(=O)[C@@H](CN3CCCCC3)[C@@H]2C[C@@H]1O`, the IC50 was 6 µM.

A further assay deals with T98G. The assay can be described thus: Anticancer activity against human T98G cells assessed as growth inhibition after 72 hrs by MTT assay. In kind it is functional, cell-based.
Details: not given
Take `C[C@]12O[C@@H]1CC[C@@]1(C)O[C@@H]1[C@H]1OC(=O)[C@@H](CN3CCN(c4ccc(Cl)cc4)CC3)[C@@H]1C[C@H]2O`: the IC50 amounted to 16 µM.

Turning to `C/C1=C\CC[C@@]2(C)O[C@@H]2[C@H]2OC(=O)[C@@H](CN3CCCCC3)[C@@H]2C[C@@H]1O`, the IC50 is 17 µM.

The subject of the next assay is MCF7. Description: Anticancer activity against human MCF7 cells assessed as growth inhibition after 72 hrs by MTT assay. In kind it is functional, cell-based. The settings on record: MCF7, 72 h.
With `C[C@]12O[C@@H]1CC[C@@]1(C)O[C@@H]1[C@H]1OC(=O)[C@@H](CN3CCN(c4ccc(Cl)cc4)CC3)[C@@H]1C[C@H]2O`, the IC50 stood at 29 µM.

`C/C1=C\CC[C@@]2(C)O[C@@H]2[C@H]2OC(=O)[C@@H](CN3CCN(c4ccccc4)CC3)[C@@H]2C[C@H]1O`: the IC50 was 19 µM.

In the case of `C/C1=C\CC[C@@]2(C)O[C@@H]2[C@H]2OC(=O)[C@@H](CN3CCCC3)[C@@H]2C[C@H]1O`, the IC50 worked out at 21 µM.

Regarding `C[C@]12O[C@@H]1CC[C@@]1(C)O[C@@H]1[C@H]1OC(=O)[C@@H](CN3CCN(c4ccccc4F)CC3)[C@@H]1C[C@H]2O`, the IC50 stood at 20 µM.

In the case of `COc1ccc(N2CCN(C[C@@H]3C(=O)O[C@H]4[C@H]3C[C@@H](O)/C(C)=C/CC[C@@]3(C)O[C@H]43)CC2)cc1`, the IC50 came out at 24 µM.

Regarding `C[C@]12O[C@@H]1CC[C@@]1(C)O[C@@H]1[C@H]1OC(=O)[C@@H](CN3CCOCC3)[C@@H]1C[C@H]2O`, the IC50 came to 24 µM.

Consider `C[C@]12O[C@@H]1CC[C@@]1(C)O[C@@H]1[C@H]1OC(=O)[C@@H](CN3CCCCC3)[C@@H]1C[C@H]2O`, for which the IC50 was found to be 74 µM.

For `C/C1=C\CC[C@@]2(C)O[C@@H]2[C@H]2OC(=O)[C@@H](CN3CCOCC3)[C@@H]2C[C@H]1O`, the IC50 was 24 µM.

Regarding `C/C1=C\CC[C@@]2(C)O[C@@H]2[C@H]2OC(=O)[C@@H](CN3CCCCC3)[C@@H]2C[C@@H]1O`, the IC50 stood at 8 µM.
